Laboratory results reported in US10246429B2, “Vinyl fluoride cyclopropyl fused thiazin-2-amine compounds as beta-secretase inhibitors and methods of use” (AMGEN INC., priority 2015, dated 2019).

How the values were obtained:
BACE2 = BACE2 (Homo sapiens (Human), UniProt Q9Y5Z0); test: In vitro enzymatic BACE2 FRET assay; format: biochemical; details: read-out: IC50 IP (μM) BACE2 Enzyme
Description: In Vitro Enzymatic BACE1 and BACE2 FRET (Fluorescence Resonance Energy Transfer) Assays (Enzyme Assay Data in Table 1)

Cathepsin D (CatD) = Cathepsin D (CatD) (Homo sapiens (Human), UniProt P07339); test: CatD assay; format: biochemical; details: read-out: IC50 IP (μM) CatD
Sequence of Cathepsin D (CatD) (P07339 65-412, species assumed): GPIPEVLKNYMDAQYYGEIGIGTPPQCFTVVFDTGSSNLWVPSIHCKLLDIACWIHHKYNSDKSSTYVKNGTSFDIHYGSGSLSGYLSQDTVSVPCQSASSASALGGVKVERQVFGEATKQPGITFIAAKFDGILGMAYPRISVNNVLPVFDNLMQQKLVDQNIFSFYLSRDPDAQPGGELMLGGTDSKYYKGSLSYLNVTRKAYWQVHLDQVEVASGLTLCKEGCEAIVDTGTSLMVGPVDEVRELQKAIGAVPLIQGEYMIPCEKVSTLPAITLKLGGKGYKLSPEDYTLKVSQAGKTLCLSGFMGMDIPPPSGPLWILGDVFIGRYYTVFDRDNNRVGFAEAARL

Sequence of BACE2 (Q9Y5Z0 63-518): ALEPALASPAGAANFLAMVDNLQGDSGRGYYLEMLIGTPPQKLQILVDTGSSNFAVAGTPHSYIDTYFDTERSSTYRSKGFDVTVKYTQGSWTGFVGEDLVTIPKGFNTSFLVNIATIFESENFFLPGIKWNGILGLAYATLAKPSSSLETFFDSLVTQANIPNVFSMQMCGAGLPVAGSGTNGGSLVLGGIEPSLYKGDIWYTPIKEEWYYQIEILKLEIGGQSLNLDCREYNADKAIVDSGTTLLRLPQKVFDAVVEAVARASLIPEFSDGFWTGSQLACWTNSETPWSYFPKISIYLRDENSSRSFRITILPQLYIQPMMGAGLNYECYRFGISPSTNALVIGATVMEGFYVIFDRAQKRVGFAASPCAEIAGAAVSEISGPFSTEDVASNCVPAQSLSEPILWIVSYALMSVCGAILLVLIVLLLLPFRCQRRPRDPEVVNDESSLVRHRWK

Structure (SMILES) | IC50 (BACE2) [µM] | IC50 (Cathepsin D (CatD)) [µM]
CN(C)C(=O)[C@]12C[C@H]1[C@@](C)(c1cc(/C=C(\F)c3cnc(OCC(F)(F)F)cn3)ccc1F)N=C(N)S2 [Example 155, (1S,5S,6S)-3-amino-5-(2-fluoro-5-((Z)-2-fluoro-2-(5-(2,2,2-trifluoroethoxy)pyrazin-2-yl)vinyl)phenyl)-N,N,5-trimethyl-2-thia-4-azabicyclo[4.1.0]hept-3-ene-1-carboxamide] | 0.0823 | 167
CC(Oc1cnc(/C(F)=C/c2ccc(F)c([C@@]3(C)N=C(N)S[C@@]4(C(=O)N(C)C)C[C@H]43)c2)cn1)c1ncco1 (stereo partly drawn) [Example 156, (1S,5S,6S)-3-amino-5-(2-fluoro-5-((Z)-2-fluoro-2-(5-(-1-(oxazol-2-yl)ethoxy)pyrazin-2-yl)vinyl)phenyl)-N,N,5-trimethyl-2-thia-4-azabicyclo[4.1.0]hept-3-ene-1-carboxamide] | 0.135 | 93.8
CN(C)C(=O)[C@]12C[C@H]1[C@@](C)(c1cc(/C=C(\F)c3cnc(Br)cn3)ccc1F)N=C(N)S2 [Example 157, (1S,5S,6S)-3-amino-5-(5-((Z)-2-(5-bromopyrazin-2-yl)-2-fluorovinyl)-2-fluorophenyl)-N,N,5-trimethyl-2-thia-4-azabicyclo[4.1.0]hept-3-ene-1-carboxamide] | 0.0262 | 39.1
CN(C)C(=O)[C@]12C[C@H]1[C@@](C)(c1cc(/C=C(\F)c3cnc(C#N)cn3)ccc1F)N=C(N)S2 [Example 169, (1S,5S,6S)-3-amino-5-(5-((Z)-2-(5-cyanopyrazin-2-yl)-2-fluorovinyl)-2-fluorophenyl)-N,N,5-trimethyl-2-thia-4-azabicyclo[4.1.0]hept-3-ene-1-carboxamide] | 0.0174 | 95.5
CN(C)C(=O)[C@]12C[C@H]1[C@@](C)(c1cc(/C=C(\F)c3ncc(C#N)cn3)ccc1F)N=C(N)S2 [Example 170, (1S,5S,6S)-3-amino-5-(5-((Z)-2-(5-cyanopyrimidin-2-yl)-2-fluorovinyl)-2-fluorophenyl)-N,N,5-trimethyl-2-thia-4-azabicyclo[4.1.0]hept-3-ene-1-carboxamide] | 0.00305 | 1700
CN(C)C(=O)[C@]12C[C@H]1[C@@](C)(c1cc(/C=C(\F)c3ccc(C#N)nc3)ccc1F)N=C(N)S2 [Example 171, (1S,5S,6S)-3-amino-5-(5-((Z)-2-(6-cyanopyridin-3-yl)-2-fluorovinyl)-2-fluorophenyl)-N,N,5-trimethyl-2-thia-4-azabicyclo[4.1.0]hept-3-ene-1-carboxamide] | 0.642 | 824
CN(C)C(=O)[C@]12C[C@H]1[C@@](C)(c1cc(/C=C(\F)c3ccc(C#N)cc3F)ccc1F)N=C(N)S2 [Example 172, (1S,5S,6S)-3-amino-5-(5-((Z)-2-(4-cyano-2-fluorophenyl)-2-fluorovinyl)-2-fluorophenyl)-N,N,5-trimethyl-2-thia-4-azabicyclo[4.1.0]hept-3-ene-1-carboxamide] | 0.146 | 202
CN(C)C(=O)[C@]12C[C@H]1[C@@](C)(c1cc(/C=C(\F)c3ccc(C#N)nn3)ccc1F)N=C(N)S2 [Example 174, (1S,5S,6S)-3-amino-5-(5-((Z)-2-(6-cyanopyridazin-3-yl)-2-fluorovinyl)-2-fluorophenyl)-N,N,5-trimethyl-2-thia-4-azabicyclo[4.1.0]hept-3-ene-1-carboxamide] | 0.406 | 280
CNC(=O)[C@]12C[C@H]1[C@@](C)(c1cc(/C=C(\F)c3ccc(Cl)cn3)ccc1F)N=C(N)S2 [Example 175, (1S,5S,6S)-3-amino-5-(5-((Z)-2-(5-chloropyridin-2-yl)-2-fluorovinyl)-2-fluorophenyl)-N,5-dimethyl-2-thia-4-azabicyclo[4.1.0]hept-3-ene-1-carboxamide] | 0.0364 | 204
CN(C)C(=O)[C@]12C[C@H]1[C@@](C)(c1cc(/C=C(\F)c3ccc(Cl)cn3)cnc1F)N=C(N)S2 [Example 178, (1S,5S,6S)-3-amino-5-(5-((Z)-2-(5-chloropyridin-2-yl)-2-fluorovinyl)-2-fluoropyridin-3-yl)-N,N,5-trimethyl-2-thia-4-azabicyclo[4.1.0]hept-3-ene-1-carboxamide] | 0.00574 | 609
CN(C)C(=O)[C@]12C[C@H]1[C@@](C)(c1cc(/C=C(\F)c3ccc(C#N)cn3)cnc1F)N=C(N)S2 [Example 180, (1S,5S,6S)-3-amino-5-(5-((Z)-2-(5-cyanopyridin-2-yl)-2-fluorovinyl)-2-fluoropyridin-3-yl)-N,N,5-trimethyl-2-thia-4-azabicyclo[4.1.0]hept-3-ene-1-carboxamide] | 0.023 | > 400
C[C@]1(c2cc(/C=C(\F)c3ccc(C#N)cn3)cnc2F)N=C(N)S[C@@]2(C(=O)N3CCOCC3)C[C@H]21 [Example 183, 6-((Z)-2-(5-((1S,5S,6S)-3-amino-5-methyl-1-(morpholine-4-carbonyl)-2-thia-4-azabicyclo[4.1.0]hept-3-en-5-yl)-6-fluoropyridin-3-yl)-1-fluorovinyl)nicotinonitrile] | 0.241 | 2140
CN(C)C(=O)[C@]12C[C@H]1[C@@](C)(c1cc(/C=C\F)ccc1F)N=C(N)S2 [Example 208, (1S,5S,6S)-3-amino-5-(2-fluoro-5-((Z)-2-fluorovinyl)phenyl)-N,N,5-trimethyl-2-thia-4-azabicyclo[4.1.0]hept-3-ene-1-carboxamide] | 0.117 | 9.28
Cc1nnc(COc2cnc(/C(F)=C/c3ccc(F)c([C@@]4(C)N=C(N)S[C@@]5(S(C)(=O)=O)C[C@H]54)c3)cn2)o1 [Example 228, (1R,5S,6S)-5-(2-fluoro-5-((Z)-2-fluoro-2-(5-((5-methyl-1,3,4-oxadiazol-2-yl)methoxy)pyrazin-2-yl)vinyl)phenyl)-5-methyl-1-(methylsulfonyl)-2-thia-4-azabicyclo[4.1.0]hept-3-en-3-amine] | 0.292 | 46.3
CN(C)C(=O)[C@]12C[C@H]1[C@@](C)(c1cc(/C=C(\F)c3cc4nccnc4cn3)ccc1F)N=C(N)S2 [Example 247, (1S,5S,6S)-3-amino-5-(2-fluoro-5-((Z)-2-fluoro-2-(pyrido[3,4-b]pyrazin-7-yl)vinyl)phenyl)-N,N,5-trimethyl-2-thia-4-azabicyclo[4.1.0]hept-3-ene-1-carboxamide] | 0.385 | 1190
C[C@]1(c2cc(/C=C(\F)c3cnc(Cl)cn3)ccc2F)N=C(N)S[C@]2(CO)[C@H]1C2(F)F [Example 252, ((1S,5S,6R)-3-amino-5-(5-((Z)-2-(5-chloropyrazin-2-yl)-2-fluorovinyl)-2-fluorophenyl)-7,7-difluoro-5-methyl-2-thia-4-azabicyclo[4.1.0]hept-3-en-1-yl)methanol] | 0.151 | 158
COC(=O)[C@@]12SC(N)=N[C@](C)(c3cc(/C=C(\F)c4ccc(C#N)cn4)ccc3F)[C@@H]1C2(F)F [Example 256, (1S,5S,6R)-methyl 3-amino-5-(5-((Z)-2-(5-cyanopyridin-2-yl)-2-fluorovinyl)-2-fluorophenyl)-7,7-difluoro-5-methyl-2-thia-4-azabicyclo[4.1.0]hept-3-ene-1-carboxylate] | 0.252 | 760
COC[C@@]12SC(N)=N[C@](C)(c3cc(/C=C(\F)c4ccc(C#N)cn4)ccc3F)[C@@H]1C2(F)F [Example 258, 6-((Z)-2-(3-((1S,5S,6R)-3-amino-7,7-difluoro-1-(methoxymethyl)-5-methyl-2-thia-4-azabicyclo[4.1.0]hept-3-en-5-yl)-4-fluorophenyl)-1-fluorovinyl)nicotinonitrile] | 0.118 | 90.7
C[C@]1(c2cc(/C=C(\F)c3ccc(C#N)cn3)cnc2F)N=C(N)S[C@@]2(C(=O)N3CCC(F)(F)CC3)C[C@H]21 [Example 260, 6-((Z)-2-(5-((1S,5S,6S)-3-amino-1-(4,4-difluoropiperidine-1-carbonyl)-5-methyl-2-thia-4-azabicyclo[4.1.0]hept-3-en-5-yl)-6-fluoropyridin-3-yl)-1-fluorovinyl)nicotinonitrile] | 0.115 | 84.1
COC[C@]12C[C@H]1[C@@](C)(c1cc(/C=C(\F)c3cnc(Cl)cn3)ccc1F)N=C(N)S2 [Example 261, (1S,5S,6S)-5-(5-((Z)-2-(5-chloropyrazin-2-yl)-2-fluorovinyl)-2-fluorophenyl)-1-(methoxymethyl)-5-methyl-2-thia-4-azabicyclo[4.1.0]hept-3-en-3-amine] | 0.08 | 357
C#CCOc1cnc(/C(F)=C/c2ccc(F)c([C@@]3(C)N=C(N)S[C@@]4(COC)C[C@H]43)c2)cn1 [Example 262, (1S,5S,6S)-5-(2-fluoro-5-((Z)-2-fluoro-2-(5-(prop-2-yn-1-yloxy)pyrazin-2-yl)vinyl)phenyl)-1-(methoxymethyl)-5-methyl-2-thia-4-azabicyclo[4.1.0]hept-3-en-3-amine] | 0.694 | 317
CC#CCOc1cnc(/C(F)=C/c2ccc(F)c([C@@]3(C)N=C(N)S[C@@]4(COC)C[C@H]43)c2)cn1 [Example 263] | 1.84 | 492
COC[C@]12C[C@H]1[C@@](C)(c1cc(/C=C(\F)c3cnc(OC[C@H](C)OC)cn3)ccc1F)N=C(N)S2 [Example 265] | 3.86 | 1320
COC[C@]12C[C@H]1[C@@](C)(c1cc(/C=C(\F)c3cnc(OCCC(F)(F)F)cn3)ccc1F)N=C(N)S2 [Example 268] | 1.55 | 245
COC[C@]12C[C@H]1[C@@](C)(c1cc(/C=C(\F)c3cnc(OCC4CCC4)cn3)ccc1F)N=C(N)S2 [Example 271] | 1.84 | 120
COC[C@]12C[C@H]1[C@@](C)(c1cc(/C=C(\F)c3cnc(OCC4CCO4)cn3)ccc1F)N=C(N)S2 (some centres unmarked) [Example 273] | 5.11 | 647
COC[C@]12C[C@H]1[C@@](C)(c1cc(/C=C(\F)c3cnc(OCc4cc(C)no4)cn3)ccc1F)N=C(N)S2 [Example 276] | 0.966 | 156
COC[C@]12C[C@H]1[C@@](C)(c1cc(/C=C(\F)c3cnc(OC(C)C(F)(F)F)cn3)ccc1F)N=C(N)S2 (some centres unmarked) [Example 277] | 2.42 | 207
